Where two headings read alike, the source gives them in different places.

The source of these data is paper PMC8132342, “Antimalarial properties and molecular docking analysis of compounds from Dioscorea bulbifera L. as new antimalarial agent candidates” (BMC Complementary Medicine and Therapies, 2021).

Data set [1] has as its system CQ-sensitive P. falciparum (3D7 strain). In words: Antimalarial activity, 3H-hypoxanthine uptake inhibition, 3D7 strain. In kind it is cell-based. Conditions: Plasmodium falciparum. As to the method: (§1) The culture of P. falciparum malaria parasites was continuously performed using standard methods with some modifications. RPMI-1640 medium was supplemented with noninfected type O-positive red blood cells (2% hematocrit), 2 mg/ml sodium bicarbonate, 10 μg/ml hypoxanthine (Sigma-Aldrich, New Delhi, India), 4.8 mg/ml HEPES (Himedia, Mumbai, India), 10% human AB serum and 2.5 μg/ml gentamicin (Sigma-Aldrich, New Delhi, India).
(§2) Antimalarial activity of extracts and compounds from D. bulbifera against P. falciparum K1 and 3D7 strains were assessed by measuring ^3H-hypoxanthine incorporated in parasite nucleic acids using the modified technique of Desjadins et al.. The red cell suspension at 1–2% hematocrit containing 1% ring stage P. falciparum-infected red blood cells was incubated with various concentrations of extracts (2.50–80 μg/ml) and pure compounds (2.5–80 μM) in 96-well culture plates. Parasites were incubated at 37 °C for 24 h, then ^3H-hypoxanthine (25 μl of 0.025 μCi/μl) was added to each well, and the plates were maintained under conditions of 93% N2, 3% O2 and 4% CO2 at 37 °C for an additional 24 h. The samples were transferred to a glass fiber filter (Wallac, Turku, Finland). ^3H-Hypoxanthine uptake was then assessed using a MicroBeta TriLux Liquid Scintillation Counter (PerkinElmer, USA). Each assay condition was performed in triplicate independently. The concentration of samples that inhibited the uptake of ^3H-hypoxanthine by 50% (IC50) assessed by log dose response curve using WinNonlin software version 4.1 (Pharsight Corporation, CA) was used as a marker of antimalarial effect potency.

Data set [2] in a line: In vitro cytotoxicity, MTT assay. In kind it is cell-based. Conditions: African green monkey. As to the method:
The toxicity of D. bulbifera extracts and isolated compounds was assessed by 3-(4,5-dimethythiazol-2-yl)-2,5-diphenyl tetrazolium bromide (MTT) assay according to a previous method. Briefly, Vero cells (Elabscience, Wuhan, Hubei, China) were seeded into 96-well plates at a density of 10^4 cell/ml and incubated for 24 h at 37 °C with 5% CO2. Cells were then treated with various concentrations of extracts and compounds for 48 h at 37 °C with 5% CO2. Doxorubicin (Sigma-Aldrich, New Delhi, India) was used as a toxic control. Subsequently, MTT solution was added to each well, and the plate was incubated for 2 h in a CO2 incubator. The medium was then removed, and 100 μl of DMSO was added to each well. Finally, the optical density was determined at a wavelength of 590 nm using a microplate reader. The assay was performed in duplicate.
For orientation: Tetrazolium dyes change colour on reduction, which living cells bring about.

The test system of data set [3] is chloroquine (CQ)-resistant P. falciparum (K1 strain). In words: Antimalarial activity, 3H-hypoxanthine uptake inhibition, K1 strain. The data set is classed as cell-based, Plasmodium falciparum. As for the experimental part: as §1, §2
[4] abbreviates: pure compounds, P. falciparum 3D7 strain, mean ± S.D. of three determinations, read-out: IC50 3D7.
[5] abbreviates: Vero cells, MTT, 48 h, read-out: CC50.
Setting [6] is: Plasmodium falciparum, K1, pure compounds, P. falciparum K1 strain, mean ± S.D. of three determinations, read-out: IC50 K1.

In the case of `O=c1c(O[C@@H]2O[C@H](CO)[C@@H](O)[C@H](O)[C@H]2O)c(-c2ccc(O)c(O)c2)oc2cc(O)cc(O)c12` [Compound 13, quercetin-3-O-β-D-glucopyranoside], the half-maximal inhibitory concentration (IC50) in data set [1] (setting [4]) and in data set [3] (setting [6]) was over 80 µM in each case. In addition, the CC50 (as a rule, the concentration at which the toxic effect on the cells reaches its halfway point) at 48 h in data set [2] (setting [5]) is over 80 µM.

Turning to `NC(=O)NC1NC(=O)NC1=O` (stereo not drawn) [Compound 8, allantoin], the IC50 in data set [1] (setting [4]) and in data set [3] (setting [6]) was over 80 µM throughout. The 50% cytotoxic concentration (CC50) at 48 h in data set [2] (setting [5]) was over 80 µM.

Take `O=c1c(O)c(-c2cc(O)c(O)c(O)c2)oc2cc(O)cc(O)c12` [Compound 11, myricetin]: the half-maximal inhibitory concentration (IC50) in data set [1] (setting [4]) and in data set [3] (setting [6]) was over 80 µM throughout. In addition, in data set [2] (setting [5]), the CC50 at 48 h is over 80 µM.

Take `CC(=O)OC1CC2C(=O)OC(c3ccoc3)CC2(C)C2CC3CC(C(=O)O3)C12` (stereo not drawn) [Compound 1, 8-epidiosbulbin E acetate]: the IC50 in data set [1] (setting [4]) and in data set [3] (setting [6]) was over 80 µM in each case. In data set [2] (setting [5]), the CC50 at 48 h is over 80 µM.

For `CCC(C(C)C)C(C)CC(C)C1CCC2C3C=CC4CC(OC5OC(CO)C(O)C(O)C5O)CCC4(C)C3CCC12C` (stereo not drawn) [Compound 3], the IC50 in data set [1] (setting [4]) and in data set [3] (setting [6]) was over 80 µM throughout. The compound further came in with a CC50 at 48 h in data set [2] of over 80 µM.

For the compound `CC(=O)OC1CC2(O)C(=O)OC(c3ccoc3)CC2(C)C2CC3CC(C(=O)O3)C12` (stereo not drawn) [Compound 2, 15,16-epoxy-6α-O-acetyl-8β-hydroxy-19-nor-clero-13(16),14-diene-17,12;18,2-diolide], the IC50 in data set [1] (setting [4]) and in data set [3] (setting [6]) was over 80 µM each time. The CC50 at 48 h in data set [2] (setting [5]) was over 80 µM.

With `C[C@H]1[C@H](OC(=O)CCC(=O)O)O[C@@H]2O[C@@]3(C)CC[C@H]4[C@H](C)CC[C@@H]1[C@@]24OO3` [Artesunate, artesunate, reference compound], the concentration for half-maximal inhibition (IC50) (in general, the concentration needed to halve the response being measured) in data set [1] (positive controls (footnote d), P. falciparum 3D7 strain, read-out: IC50 3D7) is 0.00181 ± 0.00019 µM; in data set [3] (Plasmodium falciparum, K1, positive controls (footnote d), P. falciparum K1 strain, read-out: IC50 K1), 0.00053 ± 4e-05 µM.

Regarding `O=c1c(O)c(-c2ccc(O)cc2)oc2cc(O)cc(O)c12` [Compound 7, kaempferol], the IC50 in data set [1] (setting [4]) is over 80 µM; in data set [3] (setting [6]), 62.5 ± 1.33 µM. The cytotoxic concentration (CC50) at 48 h in data set [2] (setting [5]) was over 80 µM.

As to `COc1cccc2c1C(=O)c1c(O)c3c(c(O)c1C2=O)C[C@@](O)(C(=O)CO)C[C@@H]3O[C@H]1C[C@H](N)[C@H](O)[C@H](C)O1` [Doxorubicin, reference compound], the half-maximal cytotoxic concentration (CC50) at 48 h in data set [2] (setting [5]) turned out to be 1.96 ± 0.11 µM.

For the compound `O=c1c(O[C@@H]2O[C@H](CO)[C@H](O)[C@H](O)[C@H]2O)c(-c2ccc(O)c(O)c2)oc2cc(O)cc(O)c12` [Compound 14, quercetin-3-O-β-D-galactopyranoside], the IC50 in data set [1] (setting [4]) came to 68.9 ± 4.31 µM; in data set [3] (setting [6]), 48.9 µM; in data set [3] (pure compounds, P. falciparum K1 strain, mean ± S.D. of three determinations, read-out: IC50 K1), 48.3 ± 1.21 µM. For the same compound, the CC50 at 48 h in data set [2] (setting [5]) was over 80 µM.

`Oc1cc(O)c2c(c1)O[C@H](c1ccc(O)c(O)c1)[C@@H](O)C2` [Compound 5, (+)-catechin]: the concentration for half-maximal inhibition (IC50) in data set [1] (setting [4]) and in data set [3] (setting [6]) was over 80 µM in each case. Further, the 50% cytotoxic concentration (CC50) at 48 h in data set [2] (setting [5]) is over 80 µM.

Turning to `Oc1cc(O)c2c(c1)CCc1cc(O)c(O)cc1-2` [Compound 10, 2,4,6,7-tetrahydroxy-9,10-dihydrophenanthrene], the half-maximal inhibitory concentration (IC50) in data set [1] (setting [4]) was over 80 µM; in data set [3] (setting [6]), 58.3 ± 1.96 µM. In data set [2] (setting [5]), the cytotoxic concentration (CC50) at 48 h was over 80 µM.

Turning to `COc1c(-c2ccc(O)c(O)c2)oc2cc(O)cc(OC)c2c1=O` [Compound 4, 3,5-dimethoxy quercetin], the IC50 in data set [1] (setting [4]) was found to be 70.8 ± 2.32 µM; in data set [3] (setting [6]) it was 44 ± 1.47 µM. In data set [2] (setting [5]), the 50% cytotoxic concentration (CC50) at 48 h was over 80 µM.

`O=c1c(O)c(-c2ccc(O)c(O)c2)oc2cc(O)cc(O)c12` [Compound 6, quercetin]: the IC50 in data set [1] (setting [4]) was found to be 51 ± 7.28 µM. Moreover, the CC50 at 48 h in data set [2] (setting [5]) is over 80 µM. Further, in data set [3] (K1 strain), the “fold higher activity than 3,5-dimethoxyquercetin (4)” value is “approximately 1.5 fold” and the “fold higher activity than quercetin-3-O-β-D-galactopyranoside (14)” value is on record as about 2 fold. For the same compound, the IC50 in data set [3] (setting [6]) was determined as 28.5 ± 0.9 µM. For the same compound, in data set [3] (Plasmodium falciparum, at a concentration of 80 μM, K1 strain), the inhibition (in general, the drop in the measured response relative to a control, in per cent) at 80 µM amounted to 97%.

Consider `Oc1cc(O)cc(CCc2ccc(O)cc2O)c1` [Compound 9, 2,4,3′,5′-tetrahydroxybibenzyl], for which the IC50 was 58.9 ± 4.31 µM in data set [1] (setting [4]) and 40 ± 2.5 µM in data set [3] (setting [6]). This compound also showed a CC50 at 48 h in data set [2] of 16.7 µM.

Consider `CCN(CC)CCCC(C)Nc1ccnc2cc(Cl)ccc12` (stereo not drawn) [Chloroquine, chloroquine, reference compound], for which the IC50 in data set [1] (3D7, read-out: IC50 3D7) stood at 0.00991 ± 0.00056 µM; in data set [3] (Plasmodium falciparum, K1, read-out: IC50 K1), 0.103 ± 0.0045 µM.
